Values quoted from earlier work in patent publication US20250339398A1, “TREATMENT OF SLEEP DISTRUBANCES IN AUTISM SPECTRUM DISORDER PATIENTS” (Vanda Pharmaceuticals Inc., priority 2021, published 2025).

Key:
MT2 receptor = biological target: T1, MT2 receptor (Homo sapiens, UniProt P49286); settings: MT2 receptor versus MT1 receptor
T1 sequence (P49286 1-362): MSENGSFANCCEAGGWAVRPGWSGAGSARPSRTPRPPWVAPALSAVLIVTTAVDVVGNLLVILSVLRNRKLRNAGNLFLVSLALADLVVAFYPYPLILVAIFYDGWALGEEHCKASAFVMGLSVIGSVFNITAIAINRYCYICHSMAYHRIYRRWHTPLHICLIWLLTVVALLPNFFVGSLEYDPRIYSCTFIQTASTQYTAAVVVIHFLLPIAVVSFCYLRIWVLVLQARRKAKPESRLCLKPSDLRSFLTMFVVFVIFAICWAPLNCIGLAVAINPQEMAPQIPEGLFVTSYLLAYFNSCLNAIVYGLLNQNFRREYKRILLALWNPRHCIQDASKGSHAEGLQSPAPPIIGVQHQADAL

[1] = previous clinical studies in healthy volunteers, primary insomnia, Non-24, pediatric SMS

## CCC(=O)NC[C@@H]1C[C@H]1c1cccc2c1CCO2 [Tasimelteon, tasimelteon]
Doses ranging from 3 mg to 300 mg
  linearity of pharmacokinetics: linear
In vivo
  absolute bioavailability: 38%
MT2 receptor
  affinity for the MT2 receptor relative to the MT1 receptor: greater affinity for the MT2 receptor than the MT1 receptor
[1]
  safety and tolerability: safe and well-tolerated
